Data: PubChem BioAssay (NCI)
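Tested at 5 concentrations; 48 h exposure; 96-well plates; endpoints linearly interpolated, else capped at highest concentration. At the TGI there is no net growth.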

Legend:
Test in all cases: NCI tumour cell line growth inhibition, 48 h
KM12 colon = system: KM12 colon
SF-295 CNS = system: SF-295 CNS
SF-268 CNS = system: SF-268 CNS
SW-620 colon = system: SW-620 colon
IGROV1 ovarian = system: IGROV1 ovarian
HOP-62 NSCLC = system: HOP-62 NSCLC
NCI/ADR-RES ovarian = system: NCI/ADR-RES ovarian
MCF7 breast = system: MCF7 breast
CCRF-CEM leukemia = system: CCRF-CEM leukemia
PC-3 prostate = system: PC-3 prostate
SF-539 CNS = system: SF-539 CNS
OVCAR-5 ovarian = system: OVCAR-5 ovarian
COLO 205 colon = system: COLO 205 colon
OVCAR-3 ovarian = system: OVCAR-3 ovarian
SNB-75 CNS = system: SNB-75 CNS
SK-MEL-28 melanoma = system: SK-MEL-28 melanoma
SK-MEL-5 melanoma = system: SK-MEL-5 melanoma
EKVX NSCLC = system: EKVX NSCLC
HOP-92 NSCLC = system: HOP-92 NSCLC
UACC-62 melanoma = system: UACC-62 melanoma
ACHN renal = system: ACHN renal
MDA-MB-231 breast = system: MDA-MB-231 breast
NCI-H460 lung = system: NCI-H460 lung
NCI-H226 lung = system: NCI-H226 lung
MALME-3M melanoma = system: MALME-3M melanoma
HS 578T breast = system: HS 578T breast
OVCAR-4 ovarian = system: OVCAR-4 ovarian
MDA-N = system: MDA-N
DU-145 prostate = system: DU-145 prostate
SR leukemia = system: SR leukemia
BT-549 breast = system: BT-549 breast
NCI-H522 lung = system: NCI-H522 lung
U251 CNS = system: U251 CNS
HT29 colon = system: HT29 colon
T-47D breast = system: T-47D breast
CAKI-1 renal = system: CAKI-1 renal
TK-10 renal = system: TK-10 renal
MDA-MB-435 = system: MDA-MB-435
A498 renal = system: A498 renal
SN12C renal = system: SN12C renal
A549 NSCLC = system: A549 NSCLC
HL-60(TB) leukemia = system: HL-60(TB) leukemia
RXF 393 renal = system: RXF 393 renal
SK-MEL-2 melanoma = system: SK-MEL-2 melanoma
NCI-H23 lung = system: NCI-H23 lung
SNB-19 CNS = system: SNB-19 CNS
786-0 renal = system: 786-0 renal
SK-OV-3 ovarian = system: SK-OV-3 ovarian
K-562 leukemia = system: K-562 leukemia
UO-31 renal = system: UO-31 renal
HCT-116 colon = system: HCT-116 colon
OVCAR-8 ovarian = system: OVCAR-8 ovarian
MOLT-4 leukemia = system: MOLT-4 leukemia
M14 melanoma = system: M14 melanoma
UACC-257 melanoma = system: UACC-257 melanoma
LOX IMVI melanoma = system: LOX IMVI melanoma
HCT-15 colon = system: HCT-15 colon
RPMI-8226 leukemia = system: RPMI-8226 leukemia
HCC-2998 colon = system: HCC-2998 colon

Cc1cc(C)c2c(n1)S(=O)(=O)N(CCCN1CCN(c3cccc(C(F)(F)F)c3)CC1)/C(=C(\O)c1ccccc1)C2=O
TGI (KM12 colon): 27 µM
TGI (SF-295 CNS): 19.7 µM
TGI (SF-268 CNS): > 100 µM
TGI (SW-620 colon): 29.3 µM
TGI (IGROV1 ovarian): 20.5 µM
TGI (HOP-62 NSCLC): > 100 µM
TGI (NCI/ADR-RES ovarian): 22.4 µM
TGI (MCF7 breast): 56.7 µM
TGI (CCRF-CEM leukemia): > 100 µM
TGI (PC-3 prostate): > 100 µM
TGI (SF-539 CNS): 98.7 µM
TGI (OVCAR-5 ovarian): 39 µM
TGI (COLO 205 colon): 14.7 µM
TGI (OVCAR-3 ovarian): 18.1 µM
TGI (SNB-75 CNS): 19.2 µM
TGI (SK-MEL-28 melanoma): 57.5 µM
TGI (SK-MEL-5 melanoma): 14.1 µM
TGI (EKVX NSCLC): 37.6 µM
TGI (HOP-92 NSCLC): 36.8 µM
TGI (UACC-62 melanoma): 27.6 µM
TGI (ACHN renal): > 100 µM
TGI (MDA-MB-231 breast): 71.8 µM
TGI (NCI-H460 lung): 22.3 µM
TGI (NCI-H226 lung): 7.92 µM
TGI (MALME-3M melanoma): > 100 µM
TGI (HS 578T breast): > 100 µM
TGI (OVCAR-4 ovarian): 63.9 µM
TGI (MDA-N): > 100 µM
TGI (DU-145 prostate): > 100 µM
TGI (SR leukemia): 18.7 µM
TGI (BT-549 breast): 57.3 µM
TGI (NCI-H522 lung): 88.9 µM
TGI (U251 CNS): > 100 µM
TGI (HT29 colon): 43.9 µM
TGI (T-47D breast): > 100 µM
TGI (CAKI-1 renal): 11.9 µM
TGI (TK-10 renal): > 100 µM
TGI (MDA-MB-435): 82.8 µM
TGI (A498 renal): > 100 µM
TGI (SN12C renal): > 100 µM
TGI (A549 NSCLC): > 100 µM
TGI (HL-60(TB) leukemia): 8.97 µM
TGI (RXF 393 renal): 20.9 µM
TGI (SK-MEL-2 melanoma): > 100 µM
TGI (NCI-H23 lung): 21.7 µM
TGI (SNB-19 CNS): > 100 µM
TGI (786-0 renal): 16.5 µM
TGI (SK-OV-3 ovarian): 84.7 µM
TGI (K-562 leukemia): > 100 µM
TGI (UO-31 renal): 52.7 µM
TGI (HCT-116 colon): 18.3 µM
TGI (OVCAR-8 ovarian): > 100 µM
TGI (MOLT-4 leukemia): 10.8 µM
TGI (M14 melanoma): > 100 µM
TGI (UACC-257 melanoma): 32.4 µM
TGI (LOX IMVI melanoma): 11.3 µM
TGI (HCT-15 colon): 67 µM

COc1cc(/C=C2\N=C(c3ccccc3)N(C3Nc4cc5c(cc4S3)NC(N3C(=O)/C(=C/c4cc(OC)c(OC)c(OC)c4)N=C3c3ccccc3)S5)C2=O)cc(OC)c1OC (configuration not stated)
TGI (KM12 colon): > 100 µM
TGI (SF-295 CNS): > 100 µM
TGI (SF-268 CNS): > 100 µM
TGI (SW-620 colon): > 100 µM
TGI (IGROV1 ovarian): > 100 µM
TGI (HOP-62 NSCLC): > 100 µM
TGI (NCI/ADR-RES ovarian): > 100 µM
TGI (MCF7 breast): > 100 µM
TGI (PC-3 prostate): > 100 µM
TGI (SF-539 CNS): > 100 µM
TGI (OVCAR-5 ovarian): > 100 µM
TGI (OVCAR-3 ovarian): > 100 µM
TGI (SNB-75 CNS): > 100 µM
TGI (SK-MEL-28 melanoma): > 100 µM
TGI (SK-MEL-5 melanoma): > 100 µM
TGI (EKVX NSCLC): > 100 µM
TGI (HOP-92 NSCLC): > 100 µM
TGI (ACHN renal): > 100 µM
TGI (MDA-MB-231 breast): > 100 µM
TGI (NCI-H460 lung): > 100 µM
TGI (RPMI-8226 leukemia): 95.1 µM
TGI (NCI-H226 lung): > 100 µM
TGI (HS 578T breast): > 100 µM
TGI (OVCAR-4 ovarian): > 100 µM
TGI (MDA-N): > 100 µM
TGI (DU-145 prostate): > 100 µM
TGI (SR leukemia): > 100 µM
TGI (BT-549 breast): > 100 µM
TGI (NCI-H522 lung): > 100 µM
TGI (U251 CNS): > 100 µM
TGI (HT29 colon): > 100 µM
TGI (T-47D breast): > 100 µM
TGI (CAKI-1 renal): > 100 µM
TGI (TK-10 renal): > 100 µM
TGI (MDA-MB-435): > 100 µM
TGI (A498 renal): > 100 µM
TGI (A549 NSCLC): > 100 µM
TGI (HL-60(TB) leukemia): > 100 µM
TGI (RXF 393 renal): > 100 µM
TGI (SK-MEL-2 melanoma): > 100 µM
TGI (NCI-H23 lung): > 100 µM
TGI (HCC-2998 colon): > 100 µM
TGI (786-0 renal): > 100 µM
TGI (K-562 leukemia): > 100 µM
TGI (UO-31 renal): > 100 µM
TGI (HCT-116 colon): > 100 µM
TGI (OVCAR-8 ovarian): > 100 µM
TGI (MOLT-4 leukemia): > 100 µM
TGI (M14 melanoma): > 100 µM
TGI (UACC-257 melanoma): > 100 µM
TGI (LOX IMVI melanoma): > 100 µM
TGI (HCT-15 colon): > 100 µM

COC(=O)[C@H]1[C@H](C(=O)OC)[C@@H](C)c2c(ccc3c2[nH]c2ccccc23)[C@@H]1C
TGI (KM12 colon): > 100 µM
TGI (SF-295 CNS): > 100 µM
TGI (SF-268 CNS): > 100 µM
TGI (SW-620 colon): > 100 µM
TGI (IGROV1 ovarian): > 100 µM
TGI (HOP-62 NSCLC): > 100 µM
TGI (NCI/ADR-RES ovarian): > 100 µM
TGI (MCF7 breast): > 100 µM
TGI (CCRF-CEM leukemia): > 100 µM
TGI (PC-3 prostate): > 100 µM
TGI (SF-539 CNS): > 100 µM
TGI (OVCAR-5 ovarian): > 100 µM
TGI (COLO 205 colon): > 100 µM
TGI (OVCAR-3 ovarian): > 100 µM
TGI (SNB-75 CNS): 68.7 µM
TGI (SK-MEL-28 melanoma): > 100 µM
TGI (SK-MEL-5 melanoma): > 100 µM
TGI (EKVX NSCLC): > 100 µM
TGI (HOP-92 NSCLC): > 100 µM
TGI (UACC-62 melanoma): > 100 µM
TGI (ACHN renal): > 100 µM
TGI (MDA-MB-231 breast): > 100 µM
TGI (NCI-H460 lung): > 100 µM
TGI (RPMI-8226 leukemia): > 100 µM
TGI (NCI-H226 lung): > 100 µM
TGI (MALME-3M melanoma): > 100 µM
TGI (HS 578T breast): > 100 µM
TGI (OVCAR-4 ovarian): > 100 µM
TGI (MDA-N): > 100 µM
TGI (DU-145 prostate): > 100 µM
TGI (SR leukemia): > 100 µM
TGI (BT-549 breast): > 100 µM
TGI (NCI-H522 lung): > 100 µM
TGI (U251 CNS): > 100 µM
TGI (HT29 colon): > 100 µM
TGI (T-47D breast): > 100 µM
TGI (CAKI-1 renal): > 100 µM
TGI (TK-10 renal): > 100 µM
TGI (MDA-MB-435): > 100 µM
TGI (A498 renal): > 100 µM
TGI (SN12C renal): 33.5 µM
TGI (A549 NSCLC): > 100 µM
TGI (HL-60(TB) leukemia): > 100 µM
TGI (RXF 393 renal): 82.9 µM
TGI (SK-MEL-2 melanoma): > 100 µM
TGI (NCI-H23 lung): > 100 µM
TGI (SNB-19 CNS): > 100 µM
TGI (786-0 renal): 61.5 µM
TGI (SK-OV-3 ovarian): > 100 µM
TGI (K-562 leukemia): > 100 µM
TGI (UO-31 renal): > 100 µM
TGI (HCT-116 colon): > 100 µM
TGI (OVCAR-8 ovarian): > 100 µM
TGI (MOLT-4 leukemia): 6.7 µM
TGI (M14 melanoma): > 100 µM
TGI (UACC-257 melanoma): 66.3 µM
TGI (LOX IMVI melanoma): > 100 µM
TGI (HCT-15 colon): > 100 µM
